Paper PMC3965853 (Cancer chemotherapy and pharmacology, 2014)
“And” between values parts separate entries of the source, which are not always exact repeats. Equal values may be shown once. “Also recorded” adds a separate entry of the source.

Experiments:
[1] = system: refractory solid tumors; experiment: Antitumor response assessment; format: in vivo, patients
[2] = Topotecan pharmacokinetics in plasma and urine without and with erlotinib; format: in vivo, patients; conditions: for CLrenal, Mean (SD) / CLrenal, Median / CLrenal, Range / CL, Mean (SD) / CL, Median / CL, Range / Dosage-normalized AUC, Range: total topotecan; for CLrenal, Mean (SD) / CLrenal, Median / CLrenal, Range: n 13; for CL, Mean (SD) / CL, Median / CL, Range / Dosage-normalized AUC, Range: n 19
[3] = 30 min iv infusion days 1 to 5 of 21-day cycle, with 150 mg oral erlotinib daily
[4] = system: platinum refractory/resistant ovarian cancer; conditions: lapatinib in combination with topotecan, group of 18 patients; cited from earlier work
[5] = system: relapsed/refractory ovarian cancer; conditions: topotecan and lapatinib, 35 patients evaluable; cited from earlier work
[6] = all patients n = 28, topotecan + erlotinib 150 mg
[7] = topotecan 0.75 mg/m^2 + erlotinib 150 mg, n = 8
[8] = topotecan 1.0 mg/m^2 + erlotinib 150 mg, n = 14
[9] = topotecan 1.25 mg/m^2 + erlotinib 150 mg, n = 6

## CC[C@@]1(O)C(=O)OCc2c1cc1n(c2=O)Cc2cc3c(CN(C)C)c(O)ccc3nc2-1 [topotecan]
[1]; [6]
  Best overall response: Complete response, % of patients: 0%
  Best overall response: Not evaluable, % of patients: 21.4%
  Best overall response: Not evaluable, No. of Patients: 6
  Best overall response: Partial response, % of patients: 7% and 7.1%
  Best overall response: Progressive disease, % of patients: 29% and 28.6%
  Best overall response: Progressive disease, No. of Patients: 8
  Best overall response: Stable disease, % of patients: 42.9%
  Best overall response: Stable disease, No. of Patients: 12
[1]; [7]
  Best overall response: Complete response, No. of Patients: 0
  Best overall response: Not evaluable, No. of Patients: 1
  Best overall response: Partial response, No. of Patients: 0
  Best overall response: Progressive disease, No. of Patients: 4
  Best overall response: Stable disease, No. of Patients: 3
[1]; [8]
  Best overall response: Complete response, No. of Patients: 0
  Best overall response: Not evaluable, No. of Patients: 4
  Best overall response: Partial response, No. of Patients: 1
  Best overall response: Progressive disease, No. of Patients: 4
  Best overall response: Stable disease, No. of Patients: 5
[1]; [9]
  Best overall response: Complete response, No. of Patients: 0
  Best overall response: Not evaluable, No. of Patients: 1
  Best overall response: Partial response, No. of Patients: 1
  Best overall response: Progressive disease, No. of Patients: 0
  Best overall response: Stable disease, No. of Patients: 4
[2]; Cycle 1 (without erlotinib)
  CLrenal, Mean (SD): 4.95 (2.38) L/h/m^2
  CLrenal, Median: 4.61 L/h/m^2
  CLrenal, Range: 1.29–9.12 L/h/m^2
  CL, Mean (SD): 9.41 (3.40) L/h/m^2
  CL, Median: 8.55 L/h/m^2
  CL, Range: 4.11–14.7 L/h/m^2
  Dosage-normalized AUC, Range: 35.1 to 142 ng·h/mL
[2]; Cycle 2/3 (with erlotinib)
  CLrenal, Mean (SD): 4.07 (1.87) L/h/m^2
  CLrenal, Median: 3.84 L/h/m^2
  CLrenal, Range: 1.04–7.04 L/h/m^2
  CL, Mean (SD): 8.60 (3.04) L/h/m^2
  CL, Median: 8.57 L/h/m^2
  CL, Range: 3.56–14.6 L/h/m^2
  Dosage-normalized AUC, Range: 51.4 to 237.2 ng·h/mL
[2]; with erlotinib vs without, p = 0.17
  mean (terminal) clearance of topotecan, lower in Cycle 2/3 compared to Cycle 1: 8.6%
[2]; with erlotinib vs without, p = 0.21
  mean renal clearance of topotecan, decrease in Cycle 2/3 compared to Cycle 1: 17.8%
[2]; with erlotinib vs without, p = 0.45
  mean dosage-normalized AUC of topotecan, higher in Cycle 2/3 than in Cycle 1: 8.0%
[3]
  maximum tolerated dosage (MTD) of topotecan: 1.0 mg/m^2

## CS(=O)(=O)CCNCc1ccc(-c2ccc3ncnc(Nc4ccc(OCc5cccc(F)c5)c(Cl)c4)c3c2)o1 [lapatinib]
[4]
  partial response, patients: One partial response
  patients deriving clinical benefit: three patients
[5]
  disease stabilization, patients: 12
  partial response, patients: Five patients

## C#Cc1cccc(Nc2ncnc3cc(OCCOC)c(OCCOC)cc23)c1 [erlotinib]
[2]; erlotinib 150 mg daily, oral
  effect of erlotinib on topotecan clearance / disposition: does not affect the disposition of topotecan to a clinically significant extent; also recorded: did not have a clinically significant effect on topotecan clearance or exposure; also recorded: no significant effect on topotecan systemic clearance
